The values that follow come from patent US12115152B2, “Pan-RAF kinase inhibitor and use thereof” (HEFEI INSTITUTES OF PHYSICAL SCIENCE, CHINESE ACADEMY OF …, priority 2019, dated 2024).

Structures are written as SMILES. Some results are limits rather than exact numbers.

The nature of test [1]: Effect on proliferation of cells, Cell Titer-Glo, 72 hours. It is filed as cell-based. The note with it: Mus musculus, BaF3 cells. In outline:
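Cells were incubated 72 h with ten compound concentrations from 0.000508 μM to 10 μM. Viable cell number was measured by ATP quantification with Cell Titer-Glo, and GI50 values were determined.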
(Cellular ATP, detected with luciferase, serves as a proxy for viable cell number.)

Test [2] has as its system melanoma cell A375 (expressing BRAF-V600E mutant kinase). Description: Effect on proliferation of cancer cells, Cell Titer-Glo, 72 hours. Type of test: cell-based. The note with it: Homo sapiens, A-375.
Test [3] deals with colorectal cancer cell COLO205 (expressing BRAF-V600E mutant kinase). The test is described as above. Type of test: cell-based. The note with it: Homo sapiens, COLO 205.
Test [4] concerns mouse BaF3-FL-BRAF-V600E (stably expressing full-length BRAF-V600E mutant kinase). Described as above. It is filed as cell-based.
The subject of test [5] is Calu-6, A375, BxPC3, HCT116, COLO205 cell transplanted tumors. In words: Drug efficacy in mouse transplanted tumor models. Conditions: mouse transplanted tumor models of cancer cells expressing KRAS, BRAF or NRAS mutations, oral daily dosing. Type of test: in vivo.

Regarding `Cc1ccc(NC(=O)c2cccc(C(F)(F)F)c2)cc1-n1cc(-c2cccnc2)cn1` [compound 1, 3-trifluoromethyl-N-(4-methyl-3-(4-(pyrid-3-yl)-1H-pyrazol-1-yl)phenyl)benzamide, reference compound], the GI50 in test [1] is 3300 nM; in test [2] it was 85 nM; in test [3] it was 150 nM; in test [4] it was 17 nM.

In test [1], `Cc1ccc(NC(=O)c2cccc(C(F)(F)F)c2)cc1-n1cc(-c2cncc(N3CCOCC3)c2)cn1` [Example 16, N-(4-methyl-3-(4-(5-morpholinopyrid-3-yl)-1H-pyrazol-1-yl)phenyl)-3-(trifluoromethyl)benzamide] came in with a GI50 of more than 10000 nM. Moreover, in test [5], the tumor inhibitory effect result is “inhibitory effect superior to the control compounds”.

By GI50 is commonly meant the concentration that inhibits growth by half. A low value points to more potent growth inhibition.
